Measurements taken from patent publication US8198273B2, “Compounds and methods for kinase modulation, and indications therefor” (Plexxikon Inc., priority 2009, dated 2012).

Legend:
[1] = system: A375 melanoma cells (B-Raf V600E); experiment: A375 cell growth inhibition (ATPlite); type: cell-based; conditions: Homo sapiens, A-375, 72 h; A375, 3 days incubation
Method: (§1) Compounds are assessed in a variety of cell based assays. For example human cell lines with B-Raf V600E mutation (A375 melanoma, SKMEL3 melanoma, and COL0205 colon adenocarcinoma), as well as tumorigenic cell lines with wild-type B-RAF (SW620 colon adenocarcinoma) or with Ras mutations (SKMEL2 melanoma and IPC298 melanoma). Similar assays may be used to assess additional tumorigenic cell lines with Ras mutations, including, but not limited to, M202, M207, M243, M244, M296, S117, HCT116, HCT15, DLD1, MiaPaCa, A549, NCI-H23, NCI-H460, HOP62, MDA-MB231, Hs-578T, HL60, MOLT-4, and CCRF-CEM.
(§2) On day 1, cells are counted, then centrifuged in a conical tube for 5 minutes at 1000 rpm. The supernatant is removed and cells are re-suspended as follows: • SW620 (ATCC catalog #CCL-27): resuspend in Leibovitz's L-15 medium, 2 mM L-glutamine, 10% fetal bovine serum to 6×10^4 cells/mL. • A375 (ATCC catalog #CRL-1619): resuspend in Dulbecco's modified Eagle's medium, 4 mM L-glutamine, 4.5 g/L D-glucose, 10% fetal bovine serum to 6×10^4 cells/mL. • COL0205 (ATCC catalog #CCL-222): resuspend in RPMI 1640, 2 mM L-glutamine, 1.5 g/L sodium bicarbonate, 4.5 g/L D-glucose, 10 mM HEPES, 1.0 mM sodium pyruvate, 10% fetal bovine serum to 6×10^4 cells/mL. • SKMEL2 (ATCC catalog #HTB-68): resuspend in Minimum Eagle essential medium, 2 mM L-glutamine, 1.5 g/L sodium bicarbonate, 0.1 mM non-essential amino acids, 1.0 mM sodium pyruvate, 10% fetal bovine serum to 6×10^4 cells/mL. • SKMEL3 (ATCC catalog #HTB-69): resuspend in McCoy's 5A medium, 1.5 mM L-glutamine, 15% fetal bovine serum to 6×10^4 cells/mL. • IPC298 (DSMZ catalog #ACC 251): resuspend in RPMI 1640, 2 mM L-glutamine, 10% fetal bovine serum to 6×10^4 cells/mL.
(§3) The cells are plated, 50 μL in each well of a 96-well dish (Corning 3610) and incubated at 37° C. in 5% CO2 overnight, cells plated to a final concentration of cells as follows:
(§4) On day 2, compound at a maximum concentration of 5 mM is serially diluted 1:3 for a total of 8 point titration with DMSO as a control. A 1 μL aliquot of each dilution point and control is added to 249 μL growth media and 50 μL is added to a well containing cells, providing 10 μM compound at the maximum concentration point. The cells are incubated for 3 days at 37° C. in 5% CO2.
(§5) On day 5, ATPlite 1 step Luminescence Assay System (Perkin Elmer #6016739) is brought to room temperature along with the cell cultures. ATPlite is added 25 μL to each well, shake for 2 minutes, and the cells are incubated at room temperature for 10 minutes, then luminescence is read on Safire reader. The measured luminescence correlates directly with cell number, such that the reading as a function of compound concentration is used to determine the IC50 value.
(§6) It is understood that the results of these assays may vary as assay conditions are varied. Inhibition levels determined under the conditions described herein represent a relative activity for the compounds tested under the specific conditions employed. The cell based assays are likely to show variability due to the complexity of the system and the sensitivity thereof to any changes in the assay conditions. […] Results for compounds that are tested and show substantially no inhibition below the highest tested concentration are represented as “-” in the tables below. In some instances, the compounds were not tested in all of the assays, or assay results were not valid, as indicated by NA in the tables below.

[2] = system: COLO205 colon adenocarcinoma cells (B-Raf V600E); experiment: COLO205 cell growth inhibition (ATPlite); type: cell-based; conditions: Homo sapiens, COLO 205, 72 h; COLO205, 3 days incubation
Method: as §1, §2, §3, §4, §5, §6

Colo205 xenograft = Colo205 xenograft mouse model, tumor growth inhibition; type: in vivo; conditions: COLO 205, 336 h, female nu/nu mice, 10 mg/kg daily for fourteen days
Method: Tumor growth is monitored to approximately 100 mg size, and mice are distributed to treatment groups such that the mean tumor burden within a group is within 10% of the overall mean tumor burden. […] Mice are observed daily, with tumor burden and body weights measured twice a week. Animals with tumor burden above 1500-2000 mg and any animals in moribund condition are euthanized. The average tumor growth of vehicle control group mice is compared to the average tumor growth of the test compound mice. Percent tumor growth inhibition is calculated as 100×[(tumor growth control-tumor growth test compound)/tumor growth control].

[3] = system: SW620 colon adenocarcinoma cells (wild-type B-RAF); experiment: SW620 cell growth inhibition (ATPlite); type: cell-based; conditions: Homo sapiens, SW-620, 72 h; SW620, 3 days incubation
Method: as §1, §2, §3, §4, §5, §6

CYP3A4(BFC) = CYP3A4(BFC) (Homo sapiens, UniProt P08684); experiment: CYP3A4(BFC) inhibition (fluorescent substrate); type: in vitro ADME; conditions: read-out: Cyp IC50 3A4(BFC)
Chain of CYP3A4(BFC) (P08684 whole entry): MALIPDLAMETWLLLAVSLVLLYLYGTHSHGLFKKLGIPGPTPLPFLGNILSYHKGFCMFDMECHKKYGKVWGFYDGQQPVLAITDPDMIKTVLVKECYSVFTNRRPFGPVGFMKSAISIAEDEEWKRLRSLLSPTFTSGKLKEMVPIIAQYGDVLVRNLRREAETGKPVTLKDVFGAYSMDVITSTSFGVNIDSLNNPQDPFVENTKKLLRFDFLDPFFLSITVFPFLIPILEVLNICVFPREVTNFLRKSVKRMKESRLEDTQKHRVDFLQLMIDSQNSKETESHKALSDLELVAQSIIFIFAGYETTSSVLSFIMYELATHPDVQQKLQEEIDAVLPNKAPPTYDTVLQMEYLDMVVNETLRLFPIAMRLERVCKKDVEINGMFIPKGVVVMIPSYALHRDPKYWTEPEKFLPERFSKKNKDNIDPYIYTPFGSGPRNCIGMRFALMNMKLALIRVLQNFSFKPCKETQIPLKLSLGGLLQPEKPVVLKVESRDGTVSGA
Method: (§7) CYP (Cytochrome P450) enzymes are the major drug metabolizing enzymes present in the liver. The inhibition of CYP enzyme activity (IC50) for each of CYP1A2, CYP2C19, CYP2C9, CYP2D6, CYP3A4(BFC) and CYP3A4(BQ) is determined for compounds, where inhibition of metabolism of a known substrate leads to a decrease in the fluorescence of the metabolized product. The fluorescence of the product is monitored as a function of compound concentration. Compounds are dissolved in dimethyl sulfoxide to a concentration of 100 mM. These are diluted 1 μL into 82 μL of acetonitrile. […] These are then serially diluted 1:1 (160 μL to 160 μL co-factor mix) for a total of 10 points. A 10 μL aliquot of this final mixture is dispensed into 384 well assay plates and incubated for 10 minutes at 37° C. […] Assay plates are incubated at 37° C. […] The signal versus compound concentration is used to determine the IC50. The enzymes and substrates for this assay are obtained from BD Biosciences.

[4] = Relative solubility by turbidity in aqueous buffers of varying pH; type: physicochemical
Method: As an indication of relative solubility, the turbidity of compounds in aqueous solutions is assessed. To assess possible compound properties in different physiological compartments, such as stomach, intestine, and blood, a series of aqueous buffers with varying pH is used. Thus each compound is diluted into four different physiologically relevant buffers and solution turbidity is measured by spectrophotometry.
Compounds are dissolved at a concentration of 25 mM in dimethyl sulfoxide, then serially diluted 1:1 into a 96 well plate, diluting 10 times in pure dimethyl sulfoxide, with the final well of each row a dimethyl sulfoxide blank. In an assay plate, 99 μL of appropriate buffer is added to each well, and 1 μL of each sample dilution is added to the buffer, achieving a range of final total concentrations in aqueous solutions having different pH. The buffers used are Simulated Gastric Fluid (SGF-pH 1.5) 0.5M NaCl, pH 1.5; Simulated Intestinal fluid (SIF-pH 4.5 and pH 6.8) 0.05M NaH2PO4, pH 4.5 and 6.8; and Hepes Buffer (HEPES-pH 7.4) 10 mM HEPES, 150 mM NaCl, pH 7.4. Control compounds pyrene, estriol and propranolol HCl are also assessed. Plates are spun and then mixed for 1 minute, and the absorbance is read using a Tecan Safire II to read wavelengths in the visible range (490, 535, and 650 nm) at four locations per well, reflecting the degree of turbidity present. The average optical density for each wavelength in each well is graphed vs. compound concentration, and the concentration at which the curve crosses a threshold O.D. of 0.01 for each wavelength is reported as the endpoint turbidity assay result. The average of the three wavelengths is used to compare turbidity of compounds. Compounds are considered to have low solubility if the threshold concentration is <31.3 04, moderate solubility if the threshold concentration is 31.3 μM to 250 μM, and high solubility if the threshold concentration is >250 μM.

[5] = system: SKMEL2 melanoma cells (Ras mutation); experiment: SKMEL2 cell growth inhibition (ATPlite); type: cell-based; conditions: Homo sapiens, SK-MEL-2, 72 h; SKMEL2, 3 days incubation
Method: as §1, §2, §3
SKMEL2: 2,000 cells per well.
as §4, §5, §6

CYP3A4(BQ) = CYP3A4(BQ) (Homo sapiens, UniProt P08684); experiment: CYP3A4(BQ) inhibition (fluorescent substrate); type: in vitro ADME; conditions: read-out: Cyp IC50 3A4(BQ)
Chain of CYP3A4(BQ) (P08684 whole entry): as above
Method: as §7

IC50 [1]: < 1 µM
IC50 [2]: < 1 µM
IC50 [3]: > 10 µM
IC50 (CYP3A4(BFC)): < 5 µM
IC50 [5]: > 10 µM
IC50 (CYP3A4(BQ)): < 5 µM
SMILES: O=C(c1c(F)ccc(NS(=O)(=O)c2cccnc2)c1F)c1c[nH]c2ncc(Cl)cc12 [P-2071, Pyridine-3-sulfonic acid [3-(5-chloro-1H-pyrrolo[2,3-b]pyridine-3-carbonyl)-2,4-difluoro-phenyl]-amide]
inhibition in vivo at 10 mg/kg (Colo205 xenograft): 59%
turbidity threshold (L, M, H) 7.4 ([4]; HEPES pH 7.4): M (moderate solubility if the threshold concentration is 31.3 μM to 250 μM)
turbidity threshold (L, M, H) 4.5 ([4]; SIF pH 4.5): M (moderate solubility if the threshold concentration is 31.3 μM to 250 μM)
turbidity threshold (L, M, H) 6.8 ([4]; SIF pH 6.8): M (moderate solubility if the threshold concentration is 31.3 μM to 250 μM)
turbidity threshold (L, M, H) 1.4 ([4]; buffer pH 1.4 (SGF)): M (moderate solubility if the threshold concentration is 31.3 μM to 250 μM)
